Our source for the IC50, Ki and Ratio IC50 values is ChEMBL document CHEMBL4382205, “Tryptophan 2,3-dioxygenase inhibitory activities of tryptanthrin derivatives” (Eur J Med Chem, 2018).

pIC50, pKi: −log10 of the molar value. Some results are limits rather than exact numbers.

The target in test [1] is T1, Tryptophan 2,3-dioxygenase (Homo sapiens, UniProt P48775). The experiment in a line: Inhibition of TDO (unknown origin) expressed in HEK293 cells using L-Trp as substrate after 8 hrs. The class given is cell-based.
T1 sequence (P48775 whole entry): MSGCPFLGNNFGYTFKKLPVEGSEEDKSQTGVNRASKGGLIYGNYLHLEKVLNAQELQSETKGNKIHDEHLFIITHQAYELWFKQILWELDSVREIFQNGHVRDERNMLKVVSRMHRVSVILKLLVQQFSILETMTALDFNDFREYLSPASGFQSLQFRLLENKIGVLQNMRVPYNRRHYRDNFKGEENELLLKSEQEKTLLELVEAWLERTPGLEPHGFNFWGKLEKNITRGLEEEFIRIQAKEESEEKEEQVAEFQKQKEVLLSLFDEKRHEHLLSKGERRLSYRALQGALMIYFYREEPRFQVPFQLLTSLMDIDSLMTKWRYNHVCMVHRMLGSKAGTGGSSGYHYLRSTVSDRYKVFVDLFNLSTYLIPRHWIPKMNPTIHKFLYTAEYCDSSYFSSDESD
In test [2] the target is T1, Tryptophan 2,3-dioxygenase. The test can be described thus: Inhibition of TDO in human U87 MG cells using L-Trp as substrate after 8 hrs. Type of test: cell-based, U-87MG ATCC.
The target of test [3] is T1, Tryptophan 2,3-dioxygenase. The test can be described thus: Inhibition of recombinant full length C-terminal His-tagged human TDO expressed in Escherichia coli using L-Trp as substrate after 30 mins.
The target of test [4] is T1, Tryptophan 2,3-dioxygenase. The test can be described thus: Uncompetitive inhibition of recombinant full length C-terminal His-tagged human TDO expressed in Escherichia coli using L-Trp as substrate after 30 mins by Dixon plot analysis.
Test [5] concerns the target T1, Tryptophan 2,3-dioxygenase. The experiment in a line: Mixed type […] inhibition of recombinant full length C-terminal His-tagged human TDO expressed in Escherichia coli using L-Trp as substrate after 30 mins by Dixon plot analysis.
For test [6], the species on record is Homo sapiens. The test can be described thus: Selectivity ratio of IC50 for IDO1 (unknown origin) to IC50 for recombinant full length C-terminal His-tagged human TDO.
The target of test [7] is Indoleamine 2,3-dioxygenase 1 (Homo sapiens, UniProt P14902). The experiment in a line: Inhibition of IDO1 (unknown origin).
Sequence of Indoleamine 2,3-dioxygenase 1 (P14902 whole entry): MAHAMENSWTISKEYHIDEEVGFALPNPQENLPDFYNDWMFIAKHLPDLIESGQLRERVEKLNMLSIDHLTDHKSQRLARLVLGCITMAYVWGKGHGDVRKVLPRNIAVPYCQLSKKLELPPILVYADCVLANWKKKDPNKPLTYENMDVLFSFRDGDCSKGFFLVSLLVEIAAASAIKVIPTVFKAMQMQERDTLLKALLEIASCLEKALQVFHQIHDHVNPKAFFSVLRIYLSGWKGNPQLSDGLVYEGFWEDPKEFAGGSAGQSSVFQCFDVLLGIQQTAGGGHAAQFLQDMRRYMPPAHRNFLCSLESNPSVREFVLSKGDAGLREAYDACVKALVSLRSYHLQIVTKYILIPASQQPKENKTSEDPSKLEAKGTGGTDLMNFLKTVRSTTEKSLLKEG
For test [8], the target named is T1, Tryptophan 2,3-dioxygenase. The experiment in a line: Inhibition of TDO (unknown origin).

For `O=C1c2ccccc2-n2c1nc1ccccc1c2=O` [TRYPTANTHRIN], the negative-log IC50 (pIC50) in test [1] is 6.85; in test [2] it was 6.71; in test [3], 5.40. Besides, in test [4], the pKi is 6.24.

Turning to `NS(=O)(=O)NCCNc1nonc1C(=NO)Nc1ccc(F)c(Br)c1` [EPACADOSTAT], the negative logarithm of the IC50 (pIC50) is 6.62 in test [1], 6.59 in test [2] and 4.19 in test [3]. Further, the negative logarithm of the Ki (pKi) in test [4] was 4.66.

Consider `O=C1c2ccccc2-n2c1nc1ccc(F)cc1c2=O`, for which the figures for the pIC50 in test [1], in test [2] and in test [3] were 6.62, 6.30 and 5.01, respectively. Moreover, the negative logarithm of the Ki (pKi) in test [5] was 6.06. For the same compound, the Ratio IC50 in test [6] worked out at 88.

On to `O=C1c2cc([N+](=O)[O-])ccc2-n2c1nc1ccccc1c2=O`, for which the pIC50 in test [1] was 7.21; in test [2], 7.40; in test [3] it was 7.00. For the same compound, the pKi in test [4] was 6.67.

With `O=C1c2cc(O)c(O)cc2OC(c2ccc(O)c(O)c2)C1O` (centres undefined), the pKi is below 4.00 in test [7] and 4.80 in test [8].

Consider `O=C1c2cc(Br)ccc2-n2c1nc1ccccc1c2=O`, for which the values for the pIC50 in test [1], in test [2] and in test [3] were 7.28, 7.27 and 6.03, respectively. Moreover, the pKi in test [4] was 6.45.

Regarding `O=C1c2cc(F)ccc2-n2c1nc1ccc(F)cc1c2=O`, the values for the negative logarithm of the IC50 (pIC50) in test [1], in test [2] and in test [3] were 7.23, 7.21 and 5.83, respectively. In addition, the pKi in test [5] is 6.00.

As for `O=C1c2cc(F)ccc2-n2c1nc1ccccc1c2=O`, the negative logarithm of the IC50 (pIC50) was 7.17 in test [1], 7.22 in test [2] and 6.03 in test [3]. In addition, the pKi in test [4] is 6.47.

For the compound `Cc1ccc2c(c1)C(=O)c1nc3ccccc3c(=O)n1-2`, the negative-log IC50 (pIC50) was 6.67 in test [1], 6.74 in test [2] and 5.49 in test [3]. Further, the negative-log Ki (pKi) in test [5] is 6.08. Further, the Ratio IC50 in test [6] amounted to 38.

For `O=C1c2ccc(Cl)cc2-n2c1nc1ccccc1c2=O`, the negative logarithm of the IC50 (pIC50) in test [1] was 6.13; in test [2], 6.02; in test [3] it was 3.65. The negative-log Ki (pKi) in test [5] is 4.37.

`O=C1c2c(Cl)cccc2-n2c1nc1ccccc1c2=O`: the pIC50 in test [1] is 6.64; in test [2] it was 6.64; in test [3] it was 4.35. Moreover, in test [4], the negative-log Ki (pKi) is 5.08.
